Test results: PubChem BioAssay (NCI)
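Step 1: Grow cells in 96-well plates. Step 2: Expose to compound for 48 hours at 5 concentrations. Step 3: Interpolate endpoints linearly; if unreached, use highest concentration. Definition used: TGI = concentration required for complete inhibition of growth.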

Columns and labels:
Assay in all cases: DTP human tumour cell line panel, 48 h
TK-10 renal = tested on: TK-10 renal
KM12 colon = tested on: KM12 colon
MDA-MB-231 breast = tested on: MDA-MB-231 breast
HOP-62 NSCLC = tested on: HOP-62 NSCLC
OVCAR-3 ovarian = tested on: OVCAR-3 ovarian
HL-60(TB) leukemia = tested on: HL-60(TB) leukemia
BT-549 breast = tested on: BT-549 breast
PC-3 prostate = tested on: PC-3 prostate
ACHN renal = tested on: ACHN renal
DU-145 prostate = tested on: DU-145 prostate
NCI-H522 lung = tested on: NCI-H522 lung
NCI-H460 lung = tested on: NCI-H460 lung
T-47D breast = tested on: T-47D breast
CAKI-1 renal = tested on: CAKI-1 renal

Row | Compound | TGI (TK-10 renal) [µM] | TGI (KM12 colon) [µM] | TGI (MDA-MB-231 breast) [µM] | TGI (HOP-62 NSCLC) [µM] | TGI (OVCAR-3 ovarian) [µM] | TGI (HL-60(TB) leukemia) [µM] | TGI (BT-549 breast) [µM] | TGI (PC-3 prostate) [µM] | TGI (ACHN renal) [µM] | TGI (DU-145 prostate) [µM] | TGI (NCI-H522 lung) [µM] | TGI (NCI-H460 lung) [µM] | TGI (T-47D breast) [µM] | TGI (CAKI-1 renal) [µM]
1 | Cc1ccc(NC(=S)N/N=C(/c2ccccc2)c2ccccn2)cc1 | 2.44 | 13.4 | 20.1 | 17.9 | 12.5 | 2.26 | 19.1 | 20.9 | 10.3 | 18.8 | 24.4 | 7.05 | 12.6 | 9.48
2 | COc1ccc(N2C(=O)C3ON(C(C(N)=O)c4ccccc4)C(c4cc5ccccc5c5ccccc45)C3C2=O)cc1 (stereo not given) | > 50 | > 50 | > 50 | > 50 | > 50 | > 50 | > 50 | > 50 | > 50 | > 50 | > 50 | > 50 | > 50 | 18.5
3 | COc1cc(/C=C2\N=C(c3ccccc3)N(c3nc4c(OC)ccc(OC)c4s3)C2=O)ccc1O | > 100 | > 100 | > 100 | > 100 | > 100 | > 100 | > 100 | > 100 | > 100 | > 100 | > 100 | > 100 | 26.4 | > 100
4 | O=C(O)[C@@H]1CSCN1C(=O)[C@@H]1CCC(=S)N1 | > 100 | > 100 | > 100 | > 100 | > 100 | > 100 | > 100 | > 100 | > 100 | > 100 | > 100 | > 100 | > 100 | > 100
5 | COc1cc(OC)c2c(=O)c(OC)c(-c3ccc4c(c3)OCO4)oc2c1 | > 100 | > 100 | > 100 | 74.6 | > 100 | > 100 | > 100 | > 100 | > 100 | > 100 | 92.3 | > 100 | > 100 | 60.5
6 | O=C(Cc1ccccc1)N/N=C/c1ccccc1O | > 100 | > 100 | > 100 |  | > 100 | > 100 | > 100 | > 100 | 61 | > 100 | > 100 | 57.1 | > 100 | > 100
7 | O=C1N[C@@H](c2c[nH]c3cc(Br)ccc23)C(=O)N[C@H]1c1c[nH]c2cc(Br)ccc12 | > 100 | > 100 | 80.2 | > 100 | > 100 | > 100 | > 100 | > 100 | > 100 | > 100 | > 100 | > 100 | > 100 | 
8 | CN(/N=C/c1ccc(OCc2cccc(COc3ccc(C=O)cc3)n2)cc1)c1cnn(-c2ccc(Cl)cc2Cl)c(=O)c1Cl | > 100 | > 100 | > 100 | > 100 | > 100 | > 100 | > 100 | > 100 | > 100 | > 100 | > 100 | > 100 | > 100 | > 100
9 | CC1ON2CCCC2[C@H]1C(=O)N1C2CC3CCC2(CS1(=O)=O)C3(C)C (stereo not given in full) | > 100 | > 100 | > 100 | > 100 | > 100 | > 100 | > 100 | > 100 | > 100 | > 100 | > 100 | > 100 | > 100 | > 100
10 | O=[N+]([O-])c1cccc2nc3ccccc3c(NCCC[N+]3([O-])CCOCC3)c12 | 3.33 | 0.538 | 0.948 | 0.689 | 0.474 | 1.02 | 1.4 | 2.22 | 3.81 | 0.868 | 0.462 | 0.462 | 0.919 | 12.1
11 | O=C1C(Cl)C(c2cccc(Cl)c2)N1c1ccc(-n2c(=S)[nH]c3ccccc3c2=O)cc1 (stereo not given) | 80.1 | > 100 | 74.3 | 73.8 | > 100 | 52.1 | > 100 | > 100 | 48.8 | > 100 | 31.3 | 35.3 | > 100 | > 100
12 | CN1C2CCC1CC(CCNC(c1ccccc1)c1ccccc1)C2 (stereo not given) | 55 | > 100 | 72.4 | 50.9 | > 100 | > 100 | > 100 | > 100 | > 100 | > 100 | 85.7 | > 100 | 72.2 | > 100
13 | CCn1c2ccccc2n2c(=O)c3c(c(C#N)c12)CCCC3 | > 100 | > 100 | > 100 |  | > 100 | > 100 | > 100 | > 100 | > 100 | > 100 | > 100 | > 100 | > 100 | > 100
14 | Cc1ccccc1N=Nc1ccc(N/N=C2/CCCNC2=O)c(C)c1 | > 100 | > 100 | > 100 | > 100 |  | > 100 | > 100 | > 100 | > 100 | > 100 | > 100 | > 100 | > 100 | > 100
15 | COc1ccc(O)c(/C(C)=N/NC(=S)N(C)C)c1 |  | > 100 | > 100 | > 100 | > 100 | > 100 | > 100 | > 100 | > 100 | > 100 | > 100 | > 100 | > 100 | > 94.5
16 | COC(=O)C(COC(C)=O)NC(=O)/C=C/c1ccc(O)c(OC(C)=O)c1 (stereo not given) | > 100 | > 100 | > 100 | > 100 | > 100 |  | > 100 | > 100 | > 100 | > 100 | 40.4 | > 100 | > 100 | > 100
17 | CCn1c(SCC(=O)NNC(=S)Nc2ccc(C)cc2)nc2ccccc2c1=O | > 100 | > 100 | > 100 | > 100 | > 100 | > 100 | > 100 | > 100 | > 100 | > 100 | > 100 |  | > 100 | 
